Data taken from patent US11807852B2, “Compositions and methods for reactivating latent immunodeficiency virus” (The J. David Gladstone Institutes, a testamentary trust …, priority 2014, dated 2023).
“Also recorded” adds a separate entry of the source. Like-named read-outs stand apart in the source and are kept apart here.

Assays:
[1] = cited from earlier work
[2] = biological target: SMYD2 (Homo sapiens, UniProt Q9NRG4); conditions: cited from earlier work
[3] = tested on: J-Lat cells (clone A2: LTR-Tat-IRES-GFP); format: cell-based; conditions: A2 J-Lat cells, single agent
Protocol: To test this hypothesis, J-Lat cells (clone A2: LTR-Tat-IRES-GFP) were treated with SMYD2 inhibitors. […] Both cell lines were co-treated with X2 and Ingenol 3,20-dibenzoate (a protein kinase C (PKC) activator), JQ1 (BET-bromodomain inhibitor), or the histone deacetylase (HDAC) inhibitor suberoylanilidehydroxamic acid (SAHA).

[4] = tested on: J-Lat A72 cell line (LTR-GFP)
Protocol: J-Lat (clones A2 and A72) cell lines were cultured as described in Jordan et al., EMBO J. 2003 Apr. 15:22(8):1868-77. Human αCD3/αCD28 beads (Life Technologies) were used at a concentration of 1 bead/cell ratio. JQ1 (Sigma-Aldrich) was used at a concentration of 0.1-10 μM. Ingenol 3,20-dibenzoate (Sigma-Aldrich) was used at concentrations of 5-200 nM, and SAHA (Sigma-Aldrich) was used at concentrations of 110 nM, 330 nM, or 1 μM.
HEK293T cells were obtained from the American Type Culture Collection. J-Lat (clones A2, A72, and 5A8) cell lines were described (Chan et al., 2013; Jordan et al., 2003). HEK293T cells were cultured in DMEM supplemented with 10% FBS, 1% L-glutamine and 1% penicillin-streptomycin (Life Technologies). J-Lat cells were cultured in RPMI supplemented with 10% FBS, 1% L-glutamine and 1% penicillin-streptomycin (Life Technologies). […] TNFα (Sigma-Aldrich) was used at 0.5-10 ng/ml. Human αCD3/αCD28 Dynabeads (Invitrogen) were used at a 1 bead/cell ratio. JQ1 (Cayman Chemical) was used at 0.1-10 μM. Ingenol 3,20-dibenzoate (Santa Cruz Biotechnology) was used at 5-200 nM, and SAHA (Merck) was used at 110 nM, 330 nM, or 1 μM. Phorbol 12-myristate 13-acetate (PMA) (Sigma) was used at 10 nM and ionomycin (Sigma) was used at a concentration of 500 nM. UNC926 (Tocris Bioscience) was used at a concentration of 10 nM-100 μM. AZ505. AZ506, and AZ391 were used at a concentration of 10 nM-10 μM.
ShRNA-expressing lentiviral vectors were purchased from Sigma-Aldrich. The pLKO.1 vector containing a scrambled shRNA was used as control. […] J-Lat 5A8, A72 and A2 cells were spininfected with virus (1 ng of p24 per 10^6 cells) containing shRNAs against KMTs or nontargeting control shRNAs and were selected with puronycin (2 μg/ml: Sigma). After 7 days of selection, cells were treated with the indicated concentration of drugs. The percentage of GFP^+ cells was determined after 18 h using a MACSQuant VYB FACS analyzer (Miltenyi Biotech GmbH). Cell viability was monitored by forward-and-side scatter analysis. Analysis was conducted on 3×10,000 live cells per condition. Data were analyzed using FlowJo 9.5 (Tree Star).

[5] = biological target: T1, L3MBTL1 (Homo sapiens, UniProt Q9Y468); conditions: cited from earlier work
T1 sequence (Q9Y468 1-840): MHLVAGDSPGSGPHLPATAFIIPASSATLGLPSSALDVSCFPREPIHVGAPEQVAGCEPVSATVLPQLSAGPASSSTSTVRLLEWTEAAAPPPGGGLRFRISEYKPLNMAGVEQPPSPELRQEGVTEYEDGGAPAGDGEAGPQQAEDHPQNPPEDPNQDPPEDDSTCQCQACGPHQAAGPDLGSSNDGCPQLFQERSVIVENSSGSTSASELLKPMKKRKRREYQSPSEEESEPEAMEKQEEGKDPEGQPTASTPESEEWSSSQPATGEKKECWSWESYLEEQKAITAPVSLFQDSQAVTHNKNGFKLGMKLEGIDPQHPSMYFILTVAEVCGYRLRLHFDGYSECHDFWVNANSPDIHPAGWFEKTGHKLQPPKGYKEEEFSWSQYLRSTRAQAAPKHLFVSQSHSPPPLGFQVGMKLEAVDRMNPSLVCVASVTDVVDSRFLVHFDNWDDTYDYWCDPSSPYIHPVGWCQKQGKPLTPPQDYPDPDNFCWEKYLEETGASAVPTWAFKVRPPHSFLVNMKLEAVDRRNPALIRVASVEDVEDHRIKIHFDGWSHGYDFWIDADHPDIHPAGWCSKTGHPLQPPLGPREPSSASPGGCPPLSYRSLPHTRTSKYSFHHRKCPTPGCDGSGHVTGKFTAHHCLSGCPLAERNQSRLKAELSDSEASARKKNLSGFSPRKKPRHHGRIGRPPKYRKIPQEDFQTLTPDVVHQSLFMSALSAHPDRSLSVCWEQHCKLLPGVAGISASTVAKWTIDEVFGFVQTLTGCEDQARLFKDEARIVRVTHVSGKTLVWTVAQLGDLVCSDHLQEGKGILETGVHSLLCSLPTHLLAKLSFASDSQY

[6] = tested on: J-Lat 5A8 cells; assay: SMYD5 shRNA knockdown in J-Lat 5A8 cells (qPCR, GFP flow cytometry); format: cell-based; conditions: for SMYD5 knockdown efficiency by qPCR: J-Lat 5A8 cells; for reactivation of viral latency (GFP) after CD3/28 antibody stimulation: suboptimal, medium or saturating doses, 24 hours
Protocol: ShRNA-expressing lentiviral vectors were purchased from Sigma-Aldrich. The plasmids TRCN000155095 (Target sequence: […]) (SEQ ID NO:76) and TRCN0000156306 (Target sequence: […]) (SEQ ID NO:77) were used to deplete SMYD5. The pLKO. I vector containing a scrambled shRNA was used as control. […]; 272:263-7), and titered for p24 content. […] Data were analyzed using FlowJo 9.5 (Tree Star).
RNA was isolated using RNeasy Plus Mini Kit (Qiagen) and reverse-transcribed using SuperScript III Reverse Transcriptase (Invitrogen) as per the manufacturer's instructions. Quantitative RT-PCR was carried out using Maxima SYBR Green qPCR Master Mix (Thermo Scientific) on SDS 2.4 software (Applied Biosystems) in a total volume of 12 μL. Primer efficiencies were around 100%. Dissociation curve analysis was performed after the end of the PCR to confirm the presence of a single and specific product.
To confirm results from the shRNA screen, SMYD5 was individually knocked down in J-Lat 5A8 cells. Cells were transduced with lentiviral vectors expressing two different shRNAs targeting SMYD5 or a scrambled control shRNA, followed by puromycin treatment to select successfully transduced cells. The shRNA knockdown was confirmed using qPCR and failed for #1 and was ˜50% effective for #2 (FIG. 26A). Cells were then stimulated with suboptimal, medium, or saturating doses of CD3/28 antibodies or were left unstimulated for 24 hours, followed by flow cytometry of GFP. […] To test effects of SMYD5 on basal HIV-1 transcription we analyzed RNAs from nonactivated control and SMYD5 knockdown cells with primers specific for the viral LTR; mRNAs for SMYD5 and the NF-κB factor p65 were used as controls (FIG. 26D). SMYD5 knockdown reduced basal HIV-1 transcription by ˜50% mirroring the knockdown efficiency of shRNA #2 (FIG. 26D). In independent experiments to investigate the biological role of SMYD5 during HIV transcription, HeLa cells were transfected with an HIV LTR luciferase construct and expression vectors for Tat and SMYD5. Overexpression of SMYD5 marked activation of a co-transfected viral LTR-luciferase reporter construct was observed (FIGS. 28A and 28B). To identify the target for SMYD5 in HIV-1 infection, we performed in vitro methylation assays with recombinant SMYD5 on purified human histones, Tat (aa 1-72) [SEQ ID NO. 39], NF-κB, RelA, Sp1, and P-TEFb components cyclin T1 and CDK9. Reactions included 3H-SAM and were performed with or without recombinant SMYD5 enzyme. After gel electrophoresis, coomassie staining and autoradiography no methylation was detected for RelA, Sp1, cyclin T1 and CDK9 (FIG. 27). However, histones H3 and H1 were weakly and Tat strongly methylated by SMYD5 (FIG. 27). To map the site of methylation in Tat, we performed in vitro methylation reactions using non-radiolabeled SAM and subjected them to reversed-phase liquid chromatography electrospray tandem mass spectrometry (LC-MS/MS). This analysis identified a single site, trimethylation of K41, identified in two distinct peptides (not shown). No mono or dimethylation at Tat K41 was observed.

Sequence of SMYD2 (Q9NRG4 whole entry): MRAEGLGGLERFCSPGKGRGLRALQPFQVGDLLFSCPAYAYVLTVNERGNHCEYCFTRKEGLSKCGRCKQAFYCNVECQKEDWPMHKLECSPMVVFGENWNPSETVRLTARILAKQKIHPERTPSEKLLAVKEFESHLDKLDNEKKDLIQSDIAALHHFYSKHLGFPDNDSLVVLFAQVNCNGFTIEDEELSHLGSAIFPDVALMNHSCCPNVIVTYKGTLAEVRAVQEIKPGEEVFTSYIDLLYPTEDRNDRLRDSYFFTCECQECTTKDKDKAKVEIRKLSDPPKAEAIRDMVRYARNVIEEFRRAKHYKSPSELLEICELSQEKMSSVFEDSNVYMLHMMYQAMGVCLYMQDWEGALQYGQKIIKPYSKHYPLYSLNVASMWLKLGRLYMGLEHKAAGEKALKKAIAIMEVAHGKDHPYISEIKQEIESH

In the case of `O=C1COc2c(CCNCCN(C(=O)CCNCCc3ccc(Cl)c(Cl)c3)C3CCCCC3)ccc(O)c2N1` [AZ505, N-cyclohexyl-3-((3,4-dichlorophenethyl)amino)-N-(2-((2-(5-hydroxy-3-oxo-3,4-dihydro-2H-benzo[b][1,4]oxazin-8-yl)ethyl)amino)ethyl)propanamide bis(2,2,2-trifluoroacetate), reference compound], the cell permeability ([1]; bis(2,2,2-trifluoroacetate)) is listed as “lack of cell permeability; also recorded: not cell-penetrable”, the “Kd compared with the p53 peptide” value [2] is listed as “approximately sevenfold lower than the p53 peptide” and the “activation of HIV transcription / reactivation of the HIV-LTR (GFP)” value [3] is listed as “failure of AZ505 to effectively activate HIV transcription”.
For `O=C(NCCCN1CCCC1)c1cncc(-c2ccccc2N2CCN(CCc3c[nH]c4ccccc34)CC2)c1` [AZ506], the “activation of GFP expression / reactivation of the HIV-LTR” value ([4]; A72 J-Lat cells, single agent) is given as “activated GFP expression at high concentrations” and the cell permeability [1] is given as “cell-permeable”.
In the case of UNC926 [reference compound], the “concentration at which activation is observed” value ([4]; A72, 10 nM-100 μM, without or with 0.1 ng/ml TNFα, 18 h) is reported as 100 µM, the “viability by forward-side scatter analysis” value ([4]; A72, up to 100 μM, 18 h) is reported as “No effect on viability” and the basal transcriptional activity ([4]; A72 J-Lat cells) is reported as “a doubling in basal transcriptional activity”. For the same compound, the Kd [5] was 3.9 µM.
In the case of “shRNA #1: lentiviral shRNA targeting SMYD5 (SEQ ID NO:74) (CCGGGCTATGGGAATTACAACCCATCTCGAGATGGGTTGTAATTCCCATAGCTTTTTTG)”, the “SMYD5 knockdown efficiency by qPCR” value [6] is reported as “failed” and the “reactivation of viral latency (GFP) after CD3/28 antibody stimulation” value [6] is reported as “had no effect”.
With “shRNA #2: lentiviral shRNA targeting SMYD5 (SEQ ID NO:75) (CCGGCTGTGACACTCTGGAGTTGAACTCGAGTTCAACTCCAGAGTGTCACAGTTTTTTG)” the “SMYD5 knockdown efficiency by qPCR” value [6] was ~50%, the “reduction of basal HIV-1 transcription (viral LTR RNA, RT-qPCR)” value ([6]; nonactivated cells) was ~50% and the “reactivation of viral latency (GFP) after CD3/28 antibody stimulation” value [6] was “suppressed reactivation of viral latency”.
